In patent publication US20130209386A1, “NEW USES” (EVOCUTIS PLC, priority 2010, published 2013):
Where “and” joins values, the source holds several entries; their conditions need not be identical. Equal values may be shown once. Read-outs that look alike come from different tables or passages of the source. Marks after values point to notes of the source that are not given here.

Tests used:
[1] = system: Propionibacterium acnes NCTC 737; assay: Minimum biocidal concentration (MBC) assay; type: cell-based
Procedure: (§1) The first test organism used was Propionibacterium acnes NCTC 737. This is a propionibacterial strain and is the type strain of the genus; it is fully susceptible to antibiotics. The propionibacteria are clinically significant due to their involvement in acne. They are also opportunistic pathogens in compromised hosts. Activity observed against these micro-organisms is expected to be a good predictor of activity against acne.
(§2) The propionibacteria were cultured and maintained on Wilkins-Chalgren Anaerobe Medium (agar and broth) at pH 6.0; all cultures were incubated anaerobically at 37° C. for 72 hours.
(b) Minimum Biocidal Concentration (MBC) Assay
This assay, normally carried out after an MIC assay, determines the minimum concentration of a compound that is lethal to the micro-organism being tested.
(§3) These samples were then individually sub-cultured on antibiotic-free agar medium, under the incubation conditions described above. Following incubation they were examined visually for microbial growth.

[2] = system: Propionibacterium acnes NCTC 737; assay: Minimum inhibitory concentration (MIC) assay; type: cell-based
Procedure: as §1, §2
(a) Minimum Inhibitory Concentration (MIC) Assay
This is a standard international method for quantitatively assessing the antimicrobial activity of a compound in a liquid medium. The method used a sterile 96-well microtitre plate, capable of holding about 200 μl of liquid per well. The wells contained liquid culture medium and ranges of decreasing concentrations of the relevant test compound in doubling dilutions (eg 1000, 500, 250, 125 . . . μg/ml, etc, down to 0.49 μg/ml). The culture media were as described above.
(§4) The wells were inoculated with a liquid suspension of freshly grown micro-organism and incubated under the conditions described above. After incubation, the microtitre plate was examined visually (with the aid of a light box) for cloudiness in each well, which would indicate microbial growth. The MIC value was recorded as the lowest concentration of test compound required to inhibit microbial growth, ie the lowest concentration for which the liquid in the well remained clear.
The assays included both negative (culture medium with no micro-organisms) and positive (culture medium plus diluting solvent plus micro-organism) controls.

C. striatum NCTC 764 = assay: Fixed ratio combination MIC/MBC assays; type: cell-based, Corynebacterium striatum
Procedure: The second test organism used was Corynebacterium striatum NCTC 764. This is a Gram-positive bacterium which is closely related to organisms (aerobic diphtheroids of the genus Corynebacterium) that cause body odour (Guillet et al, Eur J Dermatol, 2000 Jan-Feb, 10(1): 41-2). The C. striatum was cultured and maintained on Mueller-Hinton Medium (agar and broth) at pH 7.3 (±0.1); cultures were incubated aerobically at 37° C. for 18-24 hours.
(§5) (g) Fixed Ratio Combination MIC/MBC Assays
(§6) This method used a sterile 96-well microtitre plate, capable of holding about 200 μl of liquid per well. The wells contained liquid culture medium and ranges of decreasing concentrations of the relevant test compounds alone in doubling dilutions (eg 1000, 500, 250, 125 . . . μg/ml, etc. down to 0.49 μg/ml) or doubling dilutions of a combination of two compounds mixed initially at a fixed concentration ratio (based on molarity in this instance). The culture medium was as described above.
as §4, with “compounds alone or concentrations of the mixture of the two test compounds” for “compound”, “the” for “the lowest concentration for which the”
(§7) The assays were conducted in triplicate and included both negative (culture medium with no micro-organisms) and positive (culture medium plus diluting solvent(s) plus micro-organism) controls.
as §3
(§8) Thus for each mixture tested, the FIC for compound A (FICA)=MIC for (A+B)/MIC for A alone. Similarly the FIC for compound B (FICB)=MIC for (A+B)/MIC for B alone. The overall FICI=FICA+FICB.
(§9) FBC & FBCI were calculated in the same manner using recorded MBC values.

[3] = system: Propionibacterium acnes NCTC 737; assay: Disc diffusion assay (DDA) and synergy disc diffusion assay (SDDA); type: cell-based
Procedure: (c) Disc Diffusion Assay (DDA)
This is an internationally recognised standard method for qualitatively assessing the antimicrobial activity of a compound or combination of compounds.
A sterile paper disc was impregnated with a sample of the test compound(s) in a suitable solvent (or applied neat) and 30 minutes allowed for any of the solvents to evaporate (where possible). The disc was then placed on an agar plate onto which the test micro-organism had been inoculated. The plate was then incubated under the conditions described above, following which it was examined visually for signs of microbial growth. […] The diameter of this zone of “inhibition” was measured using a ProtoCOL™ automated zone sizer (Synbiosis, Cambridge, UK).
(d) Synergy Disc Diffusion Assay (SDDA)
This is a variation on the DDA method, in which two compounds are tested together for their combined antimicrobial activity.
Two test compounds A and B were placed on a single paper disc and the above described DDA procedure repeated.
The two compounds were then subjected in combination to the SDDA assay described above.
MIC/MBC experiments were performed in duplicate and (S)DDA experiments in triplicate.
The tropolone was dissolved in ethanol.

P. acnes NCTC 737 = assay: Fixed ratio combination MIC/MBC assays; type: cell-based, Propionibacterium acnes
Procedure: as §5, §6
as §4, with “compounds alone or concentrations of the mixture of the two test compounds” for “compound”, “the” for “the lowest concentration for which the”
as §7, §3, §8, §9

[4] = P. acnes NCTC 737, compound alone
[5] = C. striatum NCTC 764, compound alone
[6] = compound alone, 12.5 μg per disc (gluconate, picolinate 25 μg; silicate 12.4 μg; chlorophyllin 200 μg)
[7] = copper salt + tropolone versus the greater single zone
[8] = copper salt combined with tropolone on one disc, 12.5 μg each (exceptions b187)

| Molecule | MBC [1, 4] | MIC/MBC ratio [1, 4] | MIC [2, 4] | MBC (C. striatum NCTC 764; [5]) | MIC (C. striatum NCTC 764; [5]) | DDA zone of inhibition diameter [3, 6] | SDDA area increase [3, 7] | SDDA increase [3, 7] | (S)DDA with tropolone [3, 8] | further results |
| --- | --- | --- | --- | --- | --- | --- | --- | --- | --- | --- |
| [Cu+].[I-] [Copper (I) iodide] | 31.25 µg/mL | 0.25 | 7.8 µg/mL | >97.5** μg/ml | >97.5** μg/ml | 29.66 mm | 24.28% | 3.41 mm | 33.07 mm | – |
| CC(=O)[O-].CC(=O)[O-].CC(=O)[O-].[Bi+3] [Bismuth (III) acetate] | – | – | – | – | – | – | – | – | – | MBC (P. acnes NCTC 737; compound alone): >46.4** μg/ml; MIC (P. acnes NCTC 737; compound alone): 11.6 µg/mL |
| Copper (II) silicate | 38.75 µg/mL | 0.125 | 4.84 µg/mL | >35.7** μg/ml | >35.7** μg/ml | 33.80 mm | 3.08% | 0.52 mm | 34.32 mm | – |
| NCC(=O)[O-].NCC(=O)[O-].[Cu+2] [Copper (II) glycinate] | – | – | – | – | – | – | – | – | – | MBC (C. striatum NCTC 764): >54.2** μg/ml; MIC (C. striatum NCTC 764): >54.2** μg/ml |
| O.O=C(O)CC(O)(CC(=O)O)C(=O)O.[Ag].[Ag].[Ag] [Silver (I) citrate hydrate] | – | – | – | 11.3 µg/mL | 2.83 µg/mL | – | – | – | – | – |
| Copper (II) gluconate | 125 µg/mL | 0.5 | 62.5 µg/mL | >116** μg/ml | >116** μg/ml | 26.25 mm | 40.43% | 4.86 mm | 31.11 mm | – |
| O=C(O)c1cc(O)c2c(c1)[O][Bi]([OH])[O]2 [Bismuth (III) subgallate] | – | – | – | >67.2** μg/ml | >67.2** μg/ml | – | – | – | – | MBC (P. acnes NCTC 737; compound alone): >67.2** μg/ml; MIC (P. acnes NCTC 737; compound alone): >67.2** μg/ml |
| CSCC[C@H](NC(C)=O)C(=O)[O-].CSCC[C@H](NC(C)=O)C(=O)[O-].[Cu+2] [Copper (II) acetylmethionate] | 125 µg/mL | 0.06 | 7.8 µg/mL | – | – | 10.23 mm | 306.27% | 13.44 mm | 26.67 mm | – |
| CC(C)c1cccc(=O)c(O)c1 [Hinokitiol, 2-hydroxy-4-isopropyl-2,4,6-cycloheptatrien-1-one] | – | – | – | – | – | – | – | – | – | MBC (P. acnes NCTC 737; Cutibacterium acnes, NCTC737, compound alone, read-out: MBC): 62.5 µg/mL; MIC (P. acnes NCTC 737; Cutibacterium acnes, NCTC737, compound alone, read-out: MIC): 31.2 µg/mL |
| O=C1CC[C@@H](C(=O)[O-])N1.O=C1CC[C@@H](C(=O)[O-])N1.[Cu+2] [Copper (II) PCA] | 62.5 µg/mL | 0.25 | 15.6 µg/mL | >81.9** μg/ml | >81.9** μg/ml | 23.36 mm | 55.70% | 5.79 mm | 29.15 mm | – |
| [Cl][Bi]([Cl])[Cl] [Bismuth (III) chloride] | – | – | – | – | – | – | – | – | – | MBC (P. acnes NCTC 737; compound alone): 27 µg/mL and 40 µg/mL |
| Copper (II) salicylate | – | – | – | – | – | – | – | – | – | MBC [1]: 31.25 µg/mL; MIC/MBC ratio [1]: 0.25; MIC [2]: 7.8 µg/mL; MBC (C. striatum NCTC 764): >86** μg/ml; MIC (C. striatum NCTC 764): >86** μg/ml; (S)DDA with tropolone [3]: 32.87 mm; DDA zone of inhibition diameter [3]: 28.32 mm; SDDA area increase [3]: 34.70%; SDDA increase [3]: 4.55 mm |
| CC(=O)c1c([O-])c(C)c([O-])c2c1OC1=CC(=O)C(C(C)=O)C(=O)C12C.[Cu+2] (centres unmarked) [Copper (II) usnate] | 1.95 µg/mL | 0.125 | 0.25 µg/mL | 6 µg/mL | 3 µg/mL | 38.35 mm | 22.13% | 4.03 mm | 42.38 mm | – |
| Copper (II) citrate dihydrate | – | – | – | – | – | – | – | – | – | MBC [1]: 31.25 µg/mL; MIC/MBC ratio [1]: 0.06; MIC [2]: 1.95 µg/mL; MBC (C. striatum NCTC 764): >45** μg/ml; MIC (C. striatum NCTC 764): >45** μg/ml; (S)DDA with tropolone [3]: 32.45 mm; DDA zone of inhibition diameter [3]: 32.04 mm; SDDA area increase [3]: 2.60%; SDDA increase [3]: 0.41 mm |
| [Cl][Cu][Cl] [Copper (II) chloride] | 31.25 µg/mL | 0.06 | 1.95 µg/mL | >34.4** μg/ml | >34.4** μg/ml | 32.14 mm | 1.94% | 0.31 mm | 32.45 mm | – |
| O=C([O-])CN(CCN(CC(=O)[O-])CC(=O)[O-])CC(=O)[O-].[Cu+2].[Na+].[Na+] [EDTA copper (II) disodium salt] | >250 µg/mL | <0.03 | 7.8 µg/mL | – | – | 10.03 mm | 328.62% | 14.16 mm | 27.39 mm | – |
| Sodium copper (II) chlorophyllin | 31.25 µg/mL | 0.5 | 15.6 µg/mL | >185** μg/ml | 23.2 µg/mL | 0.00 mm | 220.07% | 10.44 mm | 23.67 mm | – |
| Copper (II) picolinate | 62.5 µg/mL | 1 | 62.5 µg/mL | >78.8** μg/ml | >78.8** μg/ml | 35.25 mm | −14.13% | −2.58 mm | 32.66 mm | – |
| Bismuth (III) subnitrate | – | – | – | >249.4** μg/ml | >249.4** μg/ml | – | – | – | – | MBC (P. acnes NCTC 737; compound alone): 15.6 µg/mL; MIC (P. acnes NCTC 737; compound alone): 3.9 µg/mL |
| Copper (II) carbonate basic | 31.25 µg/mL | 0.25 | 7.8 µg/mL | >28.3** μg/ml | >28.3** μg/ml | 9.10 mm | 102.17% | 5.58 mm | 18.81 mm | – |
| O=C([O-])CC(O)(CC(=O)[O-])C(=O)[O-].[Bi+3] [Bismuth (III) citrate] | – | – | – | – | – | – | – | – | – | MBC (P. acnes NCTC 737; compound alone): 8.5 µg/mL; MIC (P. acnes NCTC 737; compound alone): 2.1 µg/mL; MBC (C. striatum NCTC 764): >67.9** μg/ml; MIC (C. striatum NCTC 764): >67.9** μg/ml |
